Laboratory results reported in patent US20250177392A1, “BROAD SPECTRUM INHIBITORS OF CYTOMEGALOVIRUS” (MICROBIOTIX, INC., priority 2022, published 2025).
pIC50: −log10 of the molar value.

Legend:
[1] = system: CMV strains AD169^R and TB40/E; test: CMV infection assay, strains AD169^R and TB40/E together; assay type: cell-based, Human cytomegalovirus
[2] = system: CMV strains AD169, TB40/E^Flag-YFP, Towne, and TR; test: CMV infection assay, panel of strains in fibroblasts; assay type: cell-based, Human cytomegalovirus; conditions: Human betaherpesvirus 5, AD169, Fibroblast, read-out: IC50 values ranging
Protocol: HCMV strains AD169 (A), TB40/E Flag YFP (B), Towne (C and G), TR (D and F), Merlin (E), and TB40/E (H) infection of NHDF cells pre-treated with DMSO and 0, 1, 5, or 20 μM MBX-4992 or MBXC-4336, respectively, were assessed at 24 hpi based on IE1 expression by anti-IE1 immunostain. TB40/E (I) (MOI 0.25) and AD169^R (J) (MOI 0.25) infection of HTR-svNeo cells treated with DMSO and 0, 1, 5, or 20 μM MBX-4992 were assessed at 24 hpi based on IE1 expression by anti-IE1 immunostain. The % infection was determined using DMSO-treated as 100% infection. The error bars represent values in triplicate. Statistical tests were performed using ordinary one-way ANOVA with multiple comparisons to DMSO treated cells as a control and a Dunnett's post-test *, p<0.05; **, p<0.01; ****, p<0.0001.
Fibroblasts and ARPE-19 cells (10^4) were plated in 96-well plates (Greiner, Monroe, NC). […] At 18 hours post infection (hpi) cells were stained using a rabbit anti-IE1 antibody followed by an anti-rabbit Alexa 647 and measured using a Celigo Cytometer (Parsons et al., Antiviral Res., 193:105124 (2021); Stein et al., Nat. Commun., 10:2699 (2019)). Using the DMSO treated cells as 100% infection, the percent infection of the NAPA compound-treated cells was determined. […]

AD169 and AD169^R = test: IE1 expression 2 days post-infection in fibroblasts; assay type: cell-based, Human cytomegalovirus
Protocol: HCMV strains AD169^R (A) and AD169 (B) infection (MOI 0.2) of NHDF cells pre-treated with 0, 5, and 20 μM MBX-4992 were assessed at 1 dpi or 2 dpi based on IE1 expression by anti-IE1 immunostain. The % infection was determined using DMSO-treated as 100% infection. The error bars represent values in triplicate. Statistical tests were performed using ordinary one-way ANOVA with multiple comparisons to DMSO treated cells as a control and a Dunnett's post-test; **, p<0.01; ****, p<0.0001. (C) Total cell lysates from AD169^R-infected (MOI 0.2) ARPE-19 cells pre-treatment with DMSO, MBX-4992 (1-20 μM) or heparin (50 μg/mL) collected at 24 hpi were subjected to Western blot analysis using a rabbit anti-IE-1 antibody (lanes 1-7) and an anti-GAPDH antibody (lanes 8-14) as a loading control. The molecular weight markers and respective proteins are indicated.
(FIG. 11A-G). […] The IC50 values were similar in diverse cell types and among the different strains further supporting that NAPA compounds are effective at inhibiting CMV infection.

HSV-1 E-377 = test: Herpes virus panel neutralization, HSV-1; assay type: cell-based, Herpes simplex virus 1
Protocol: (§1) To determine the specificity of MBX-4992, additional neutralization experiments were conducted using a panel of herpes viruses performed in the presence of MBX-4992. […] Collectively, the antiviral activity of MBX-4992 is equivalent to that of GCV indicating specific inhibition of CMV replication.

HCMV GDGr K17 (GCV^R) = test: Herpes virus panel neutralization, GCV-resistant HCMV; assay type: cell-based, Human cytomegalovirus
Protocol: as §1

GpCMV 22122 = test: Herpes virus panel neutralization, GpCMV; assay type: cell-based, Guinea pig cytomegalovirus
Protocol: as §1

AD169^R = test: Cells pre-incubation / washout study; assay type: cell-based, Human cytomegalovirus
Protocol: (C) NHDF cells were pre-incubated with DMSO, MBX-4992 or heparin prior to virus addition. After addition of AD169^R (MOI 0.2) for 30 min, media was either unchanged or replaced with media containing DMSO, MBX-4992, or heparin. Virus infection was quantified at 24 hpi by GFP fluorescence. Percent infection was normalized to untreated cells. Statistical tests were performed using ordinary one-way ANOVA with multiple comparisons to DMSO treated cells as a control and a Dunnett's post-test: *, p<0.05; ****, p<0.0001.
NHDF cells (10^4) plated overnight in a 96-well plate were pretreated with MBX-4992 (10 μM), heparin (50 μg/mL) or DMSO for 1 hour at 37° C. The plate was then placed at 4° C. for 5 minutes followed by the addition of AD169^R CMV virus for 30 minutes. 2/3rd of the samples were aspirated post binding. Half of those samples received DMSO media, regardless of the drug the cells were previously exposed to. The remaining wells received either MBX-4992 (10 μM) or Heparin (50 μg/mL) overnight. At 18 hpi, the cells were fixed with 4% paraformaldehyde, stained with a rabbit anti-IE1 antibody followed by an anti-rabbit Alexa 647, and analyzed using the Celigo cytometer. The DMSO condition that was not aspirated post binding was set as 100% infection.
We next examined whether pre-treating cells with MBX-4992 can limit virus infection. Cells were pre-treated with MBX-4992 or heparin for […] followed by the addition of AD169^R for 30 min at 4° C. The cells were either washed out or unchanged as indicated and replaced with media containing DMSO, MBX-4992, or heparin followed by incubation at 37° C. At 18 hpi, virus infection was evaluated using a Celigo cytometer.

TB40/E = test: Plaque assay, MBX-4992 and ganciclovir alone and in combination; assay type: cell-based, Human cytomegalovirus; conditions: ARPE-19 and NHDF cells, 10 dpi; MBX-4992 1-20 μM, ganciclovir 2.5 μM
Protocol: At 10 day post-infection, representative whole well images of plaques >10,000 μm^2 (A and B) were quantified based on GFP fluorescence intensity and calculated relative to DMSO controls (C and D). Statistical tests were performed using ordinary one-way ANOVA with multiple comparisons to DMSO treated cells as a control and a Dunnett's post-test. *, p<0.05; **, p<0.01; ***, p<0.001; ****, p<0.0001.
At 10 days post-infection, representative whole well images of plaques >10,000 μm^2 (A and B) were quantified based on GFP fluorescence intensity and calculated relative to DMSO controls (C and D).

## Cc1nc(Nc2ccc(NC(=O)c3ccco3)cc2)cc(N2CCCC2)n1 [MBX-4992]
[1]; HRT8svNEO trophoblasts, 24 hpi, IE1 immunostain
  infection of trophoblasts: limited infection
[1]; Human betaherpesvirus 5, AD169, read-out: IC50 values ranging
  pIC50: 5.32 to 5.72
[2]
  pIC50: 5.10 to 6.30
AD169 and AD169^R
  IE1 expression: similarly effective at limiting IE1 expression
HSV-1 E-377
  SI: <2
HSV-1 E-377; Human alphaherpesvirus 1
  pIC50: < 4.52
HCMV GDGr K17 (GCV^R); HCMV GDGr K17 (GCV^R)
  SI: >83
HCMV GDGr K17 (GCV^R); Human betaherpesvirus 5
  pIC50: 5.74
GpCMV 22122
  SI: <4
GpCMV 22122; Caviid betaherpesvirus 2
  pIC50: < 4.52
AD169^R; cells pre-incubated and compound sequentially removed
  virus infection, drug removed: do not significantly impact infection
AD169^R; cells pre-treated, drugs not removed or added back to washed-out cells
  virus infection, drug not removed or added back: significantly inhibited virus infection
TB40/E
  viral plaques >10,000 μm^2, single drug: decreased
